Measurements taken from patent publication US9681664B2, “Macrocyclic picolinamides as fungicides” (Dow Agrosciences LLC, priority 2012, dated 2017).
Like-named read-outs stand apart in the source and are kept apart here.

What was measured:
[1] = tested on: Mycosphaerella graminicola; Anamorph: Septoria tritici; experiment: Leaf blotch of wheat (SEPTTR) disease control on wheat seedlings; format: in vivo; conditions: for pest or weed control at 100 ppm / pest or weed control at 121.5 g/ha: Zymoseptoria tritici; for pest or weed control at 121.5 g/ha: low volume application, 121.5 g/H; for pest or weed control at 100 ppm / SEPTTR 1DP disease control / SEPTTR 3DC disease control: 100 ppm
Summary of the method: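 Protective or curative format: Septoria tritici inoculation either preceded or followed fungicide application to first-leaf Yuma wheat. Severity scored 0–100%; control expressed versus untreated.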

[2] = tested on: Puccinia triticina; Synonym: Puccinia recondite f. sp. tritici; experiment: Wheat brown rust (PUCCRT) disease control on wheat seedlings; format: in vivo; conditions: for pest or weed control at 100 ppm / pest or weed control at 121.5 g/ha: Puccinia triticina; for pest or weed control at 121.5 g/ha: low volume application, 121.5 g/H; for pest or weed control at 100 ppm / PUCCRT 1DP disease control / PUCCRT 3DC disease control: 100 ppm
Summary of the method: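 Yuma wheat grown to first fully emerged leaf was inoculated with Puccinia triticina spore suspension either before or after fungicide treatment, held overnight at 22° C. and 100% RH in darkness, then kept at 24° C. Fungicide applied by booth sprayer to run-off (acetone/water, 110 ppm Triton X-100) or as EC by track spray.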

[3] = tested on: Phakopsora pachyrhizi; experiment: Asian soybean rust (PHAKPA) disease control; format: in vivo; conditions: topical, high volume
Experimental: Technical grades of materials were dissolved in acetone, which were then mixed with nine volumes of water containing 0.011% Tween 20. The fungicide solutions were applied onto soybean seedlings using an automated booth sprayer to run-off. All sprayed plants were allowed to air dry prior to further handling.
Soybean plants (variety Williams 82) were grown in soil-less Metro mix, with one plant per pot. Two weeks old seedlings were used for testing. Plants were inoculated either 3 days prior to or 1 day after fungicide treatments. Plants were incubated for 24 h in a dark dew room at 22° C. and 100% RH then transferred to a growth room at 23° C. for disease to develop. Disease severity was assessed on the sprayed leaves.

[4] = tested on: Glomerella lagenarium; Anamorph: Colletotrichum lagenarium; experiment: Cucumber anthracnose (COLLLA) disease control; format: in vivo; conditions: Colletotrichum orbiculare, 24 h, 1 Day Protectant, high volume, read-out: Disease Control COLLLA 1 DP
Experimental: Technical grades of materials were dissolved in acetone, which were then mixed with nine volumes of water containing 110 ppm Triton X-100. The fungicide solutions were applied onto wheat seedlings using an automated booth sprayer to run-off. All sprayed plants were allowed to air dry prior to further handling. All fungicides were evaluated using the aforementioned method for their activity vs. all target diseases. Wheat leaf blotch and brown rust activity were also evaluated using track spray applications, in which case the fungicides were formulated as EC formulations, containing 0.1% Trycol 5941 in the spray solutions. Cucumber seedlings (variety Bush Pickle) were propagated in soil-less Metro mix, with each pot having one plant, and used in the test when 12 to 14 days old. Test plants were inoculated with an aqueous spore suspension of Colletotrichum lagenarium 24 hr after fungicide treatments. After inoculation the plants were kept in a dew room at 22° C. with 100% relative humidity for 48 hr to permit spores to germinate and infect the leaf. The plants were then transferred to a growth room set at 22° C. for disease to develop. Fungicide formulation, application and disease assessment on the sprayed leaves followed the procedures as described in the Example A.

[5] = 24 h, High volume application, 1 Day Protectant, read-out: SEPTTR 1DP disease control
[6] = 72 h, High volume application, 3 Day Curative, read-out: SEPTTR 3DC disease control
[7] = 24 h, High volume application, 1 Day Protectant, read-out: PUCCRT 1DP disease control
[8] = 72 h, High volume application, 3 Day Curative, read-out: PUCCRT 3DC disease control
[9] = 24 h, 1 Day Protectant, read-out: Disease Control PHAKPA 1DP
[10] = 72 h, 3 Day Curative, read-out: Disease Control PHAKPA 3DC
[11] = High volume application, 1 Day Protectant
[12] = High volume application, 3 Day Curative

Compound	melting point [°C]	pest or weed control at 100 ppm [1, 5] [%]	pest or weed control at 100 ppm [1, 6] [%]	pest or weed control at 100 ppm [2, 7] [%]	pest or weed control at 100 ppm [2, 8] [%]	pest or weed control at 25 ppm [3, 9] [%]	further results
CC(C)CO[C@H]1CCC[C@H](N)C(=O)O[C@@H](C)[C@@H]1OC(=O)C1CC1.Cl	231 to 235						
CCCO[C@H]1[C@H](C)OC(=O)[C@@H](N)CCC[C@@H]1OCC(C)C.Cl	226 to 229						
CC(C)CO[C@H]1CCC[C@H](N)C(=O)O[C@@H](C)[C@@H]1OC/C=C/C(F)(F)F.Cl	236 to 240						
COc1ccc(O[C@H]2CCC[C@H](N)C(=O)O[C@@H](C)[C@@H]2OCC(C)C)cc1.Cl	198 to 200						
C[C@@H]1OC(=O)[C@@H](N)CCC[C@H](OC2CCCC2)[C@H]1OC1CCCC1.Cl	246 to 248						
CC(C)CO[C@H]1[C@H](C)OC(=O)[C@@H](N)CCC[C@@H]1OCC(C)C.Cl	188 to 230						
COc1ccnc(C(=O)N[C@H]2CCC[C@H](OCC(C)C)[C@@H](OCC(C)C)[C@H](C)OC2=O)c1O [F21]	94 to 95	0 to 80	0 to 80	80 to 100	80 to 100		
COc1ccnc(C(=O)N[C@H]2CCC[C@H](OCC(C)C)[C@@H](OCCCC(F)(F)F)[C@H](C)OC2=O)c1O [F41]	108 to 114	0 to 80	80 to 100	80 to 100	80 to 100		
COc1ccnc(C(=O)N[C@H]2CCC[C@H](OCC(C)C)[C@@H](OCCCC(F)(F)F)[C@H](C)OC2=O)c1OCOC(C)=O [F44]		80 to 100	80 to 100	80 to 100	80 to 100	80 to 100	
CCCO[C@H]1[C@H](C)OC(=O)[C@@H](NC(=O)c2nccc(OC)c2OCOC(C)=O)CCC[C@@H]1OCC(C)C [F45]		80 to 100	80 to 100	80 to 100	80 to 100	80 to 100	pest or weed control at 25 ppm [3, 10]: 80 to 100%
COc1ccnc(C(=O)N[C@H]2CCC[C@H](OCC(C)C)[C@@H](OC(=O)C3CC3)[C@H](C)OC2=O)c1OCOC(C)=O [F46]		80 to 100	80 to 100	80 to 100	80 to 100	80 to 100	
CCCO[C@H]1[C@H](C)OC(=O)[C@@H](NC(=O)c2nccc(OC)c2OC(C)=O)CCC[C@@H]1OCC(C)C [F47]		80 to 100	80 to 100	80 to 100	80 to 100	< 0	
COc1ccnc(C(=O)N[C@H]2CCC[C@H](OCC(C)C)[C@@H](OC/C=C/C(F)(F)F)[C@H](C)OC2=O)c1OCOC(C)=O [F59]		80 to 100	80 to 100	80 to 100	80 to 100	80 to 100	
COc1ccnc(C(=O)N[C@H]2CCC[C@H](OC3CCCC3)[C@@H](OC3CCCC3)[C@H](C)OC2=O)c1OCOC(=O)C(C)C [F76]		80 to 100	80 to 100	80 to 100	80 to 100	80 to 100	
COc1ccnc(C(=O)N[C@H]2CCC[C@H](OC3CCCC3)[C@@H](OC3CCCC3)[C@H](C)OC2=O)c1OC(C)=O [F77]		80 to 100	80 to 100	80 to 100	80 to 100	80 to 100	
COc1ccnc(C(=O)N[C@H]2CCC[C@H](OC3CCCC3)[C@@H](Oc3ccccc3)[C@H](C)OC2=O)c1OCOC(C)=O [F78]		80 to 100	80 to 100	80 to 100	80 to 100	80 to 100	pest or weed control at 25 ppm [3, 10]: 80 to 100%; pest or weed control at 100 ppm [4]: 80 to 100%
COc1ccnc(C(=O)N[C@H]2CCC[C@H](OC3CCCC3)[C@@H](Oc3ccccc3)[C@H](C)OC2=O)c1OCOC(=O)C(C)C [F79]		80 to 100	80 to 100	80 to 100	80 to 100	80 to 100	
COc1ccnc(C(=O)N[C@H]2CCC[C@H](OC3CCCC3)[C@@H](Oc3ccccc3)[C@H](C)OC2=O)c1OC(C)=O [F81]		80 to 100	80 to 100	80 to 100	80 to 100	80 to 100	
CCCO[C@H]1[C@H](C)OC(=O)[C@@H](NC(=O)c2nccc(OC)c2OCOC(C)=O)CCC[C@@H]1Oc1ccccc1 [F95]		80 to 100	80 to 100	80 to 100	80 to 100	80 to 100	pest or weed control at 25 ppm [3, 10]: 80 to 100%
COc1ccnc(C(=O)N[C@H]2CCC[C@H](OCCCc3ccccc3)[C@@H](Oc3ccccc3)[C@H](C)OC2=O)c1OCOC(C)=O [F133]		80 to 100	80 to 100	80 to 100	80 to 100	80 to 100	pest or weed control at 25 ppm [3, 10]: 0 to 80%
COc1ccnc(C(=O)N[C@H]2CCC[C@H](OC3CCCC3)[C@@H](OC3CCCC3)[C@H](C)OC2=O)c1OCOC(C)=O [F217]		80 to 100	80 to 100	80 to 100	80 to 100	80 to 100	pest or weed control at 100 ppm [4]: 80 to 100%
COCCC(=O)Oc1c(OC)ccnc1C(=O)N[C@H]1CCC[C@H](Oc2ccccc2)[C@@H](OC(=O)C2CC2)[C@H](C)OC1=O [F243]						80 to 100	pest or weed control at 100 ppm ([1]; 24 h, Wheat Leaf Blotch, 1 Day Protectant, high volume application, read-out: Disease Control SEPTTR 1 DP 100 ppm): 80 to 100%; pest or weed control at 121.5 g/ha ([1]; 24 h, Wheat Leaf Blotch, 1 Day Protectant, read-out: Disease Control SEPTTR 1 DP 121.5 g/H): 0 to 80%; pest or weed control at 100 ppm ([1]; 72 h, Wheat Leaf Blotch, 3 Day Curative, high volume application, read-out: Disease Control SEPTTR 3 DC 100 ppm): 80 to 100%; pest or weed control at 121.5 g/ha ([1]; 72 h, Wheat Leaf Blotch, 3 Day Curative, read-out: Disease Control SEPTTR 3 DC 121.5 g/H): 80 to 100%; pest or weed control at 100 ppm ([2]; 24 h, Wheat Brown Rust, 1 Day Protectant, high volume application, read-out: Disease Control PUCCRT 1 DP 100 ppm): 80 to 100%; pest or weed control at 121.5 g/ha ([2]; 24 h, Wheat Brown Rust, 1 Day Protectant, read-out: Disease Control PUCCRT 1 DP 121.5 g/H): 80 to 100%; pest or weed control at 100 ppm ([2]; 72 h, Wheat Brown Rust, 3 Day Curative, high volume application, read-out: Disease Control PUCCRT 3 DC 100 ppm): 80 to 100%; pest or weed control at 121.5 g/ha ([2]; 72 h, Wheat Brown Rust, 3 Day Curative, read-out: Disease Control PUCCRT 3 DC 121.5 g/H): 80 to 100%; pest or weed control at 25 ppm [3, 10]: 0 to 80%
[4-methoxy-2-[[(3S,7S,8S,9S)-9-methyl-7,8-bis(2-methylallyloxy)-2-oxo-oxonan-3-yl]carbamoyl]-3-pyridyl]oxymethyl acetate [F16]							SEPTTR 1DP disease control [1, 11]: A (80-100); SEPTTR 3DC disease control [1, 12]: A (80-100); PUCCRT 1DP disease control [2, 11]: A (80-100); PUCCRT 3DC disease control [2, 12]: A (80-100)
[4-methoxy-2-[[(3S,7S,8S,9S)-9-methyl-7,8-bis(2-methylallyloxy)-2-oxo-oxonan-3-yl]carbamoyl]-3-pyridyl]oxymethyl-2-methylpropanoate [F17]							SEPTTR 1DP disease control [1, 11]: A (80-100); SEPTTR 3DC disease control [1, 12]: A (80-100); PUCCRT 1DP disease control [2, 11]: A (80-100); PUCCRT 3DC disease control [2, 12]: A (80-100)
